Source: the NIST ThermoML archive (doi:10.1016/j.jct.2012.05.030)

How the values were obtained:
[1] = refractive index (other wavelength) (dimensionless); conditions: 100 kPa, Liquid, Wavelength=632.8 nm, Standard Abbe refractometry
[2] = refractive index (other wavelength) (dimensionless); xn = mol fraction of the nth substance listed; conditions: 100 kPa, Liquid, Wavelength=632.8 nm, Standard Abbe refractometry

N#Cc1ccccc1 [benzonitrile]
[1]
Conditions | refractive index
293.37 K | 1.5252
293.99 K | 1.5249
294.53 K | 1.5247
295.09 K | 1.5243
295.66 K | 1.5241
296.11 K | 1.5238
296.8 K | 1.5236
297.16 K | 1.5233
297.91 K | 1.523
298.2 K | 1.5228
298.8 K | 1.5225
298.83 K | 1.5226
299.26 K | 1.5223
300.06 K | 1.5219
300.12 K | 1.5219
300.31 K | 1.5218
301.13 K | 1.5214
301.23 K | 1.5214
301.35 K | 1.5213
302.26 K | 1.5209
302.31 K | 1.5209
302.42 K | 1.5208
302.65 K | 1.5207
303.41 K | 1.5203
304.49 K | 1.5198
305.64 K | 1.5192
306.89 K | 1.5186
307.55 K | 1.5183
307.88 K | 1.5181

N#Cc1ccccc1 [benzonitrile] + CCCCCCCCCCCCCCC
[2], x1 = 1
Conditions | refractive index
293.37 K | 1.5252
293.99 K | 1.5249
294.53 K | 1.5247
295.09 K | 1.5243
295.66 K | 1.5241
296.11 K | 1.5238
296.8 K | 1.5236
297.16 K | 1.5233
297.91 K | 1.523
298.2 K | 1.5228
298.8 K | 1.5225
298.83 K | 1.5226
299.26 K | 1.5223
300.06 K | 1.5219
300.12 K | 1.5219
300.31 K | 1.5218
301.13 K | 1.5214
301.23 K | 1.5214
301.35 K | 1.5213
302.26 K | 1.5209
302.31 K | 1.5209
302.42 K | 1.5208
302.65 K | 1.5207
303.41 K | 1.5203
304.49 K | 1.5198
305.64 K | 1.5192
306.89 K | 1.5186
307.88 K | 1.5181

N#Cc1ccccc1 [benzonitrile] + CCCCCCCCCCCCCCCCC
[2], x1 = 1
Conditions | refractive index
293.37 K | 1.5252
293.99 K | 1.5249
294.53 K | 1.5247
295.09 K | 1.5243
295.66 K | 1.5241
296.11 K | 1.5238
296.8 K | 1.5236
297.16 K | 1.5233
297.91 K | 1.523
298.2 K | 1.5228
298.8 K | 1.5225
298.83 K | 1.5226
299.26 K | 1.5223
300.06 K | 1.5219
300.12 K | 1.5219
300.31 K | 1.5218
301.13 K | 1.5214
301.23 K | 1.5214
301.35 K | 1.5213
302.26 K | 1.5209
302.31 K | 1.5209
302.42 K | 1.5208
303.41 K | 1.5203
304.49 K | 1.5198
305.64 K | 1.5192
306.89 K | 1.5186
307.55 K | 1.5183
307.88 K | 1.5181

CCCCCCCCCCCCCCCCC [heptadecane]
[1]
Conditions | refractive index
298.76 K | 1.4331
299.97 K | 1.4326
301.18 K | 1.4321
302.15 K | 1.4317
303.27 K | 1.4313
304.24 K | 1.4309
305.29 K | 1.4304
306.32 K | 1.43
307.42 K | 1.4296
307.55 K | 1.4296

CCCCCCCCCCCCCCCCC [heptadecane] + N#Cc1ccccc1
[2]
Conditions | refractive index
298.76 K, x2 = 0 | 1.4331
299.97 K, x2 = 0 | 1.4326
301.18 K, x2 = 0 | 1.4321
302.15 K, x2 = 0 | 1.4317
303.27 K, x2 = 0 | 1.4313
304.24 K, x2 = 0 | 1.4309
305.29 K, x2 = 0 | 1.4304
306.32 K, x2 = 0 | 1.43
307.42 K, x2 = 0 | 1.4296
307.55 K, x2 = 0 | 1.4296
307.55 K, x2 = 0.1039 | 1.4325
307.55 K, x2 = 0.2138 | 1.4362
307.55 K, x2 = 0.3266 | 1.4411
307.55 K, x2 = 0.4187 | 1.4458
307.55 K, x2 = 0.5127 | 1.4515
307.55 K, x2 = 0.5975 | 1.4578
307.55 K, x2 = 0.7127 | 1.4688
307.55 K, x2 = 0.8046 | 1.4802
307.55 K, x2 = 0.9266 | 1.501

CCCCCCCCCCCCCCC [pentadecane]
[1]
Conditions | refractive index
293.37 K | 1.4305
294.36 K | 1.4301
295.64 K | 1.4296
296.92 K | 1.429
297.91 K | 1.4286
299.12 K | 1.4281
300.26 K | 1.4276
301.51 K | 1.4271
302.46 K | 1.4267
302.65 K | 1.4266

CCCCCCCCCCCCCCC [pentadecane] + N#Cc1ccccc1
[2]
Conditions | refractive index
293.37 K, x2 = 0 | 1.4305
294.36 K, x2 = 0 | 1.4301
295.64 K, x2 = 0 | 1.4296
296.92 K, x2 = 0 | 1.429
297.91 K, x2 = 0 | 1.4286
299.12 K, x2 = 0 | 1.4281
300.26 K, x2 = 0 | 1.4276
301.51 K, x2 = 0 | 1.4271
302.46 K, x2 = 0 | 1.4267
302.65 K, x2 = 0 | 1.4266
302.65 K, x2 = 0.1097 | 1.4304
302.65 K, x2 = 0.22 | 1.435
302.65 K, x2 = 0.3283 | 1.4404
302.65 K, x2 = 0.4141 | 1.4454
302.65 K, x2 = 0.4959 | 1.451
302.65 K, x2 = 0.5849 | 1.4582
302.65 K, x2 = 0.7005 | 1.4698
302.65 K, x2 = 0.8052 | 1.4832
302.65 K, x2 = 0.8983 | 1.4986
